From patent publication US20260256751A1, “COMBINATION OF BETA-2-ADRENERGIC RECEPTOR AGONISTS AND GLP-1 RECEPTOR AGONISTS FOR USE IN TREATING HYPERGLYCAEMIA” (ATROGI AB, priority 2023, published 2026)

Key:
[1] = system: differentiated L6-myotubes; test: Glucose uptake screen (Biological example 1 of WO 2019/053427); assay type: cell-based; conditions: compound at 10 μM, activity relative to isoproterenol at 10 μM, read-out: Biological example 1 of WO 2019/053427 (GU)
Summary of the method: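 Rat L6 myoblasts were differentiated into myotubes over 7 days in 2% FBS, then serum-starved overnight. Cells were stimulated with 1×10^−5 M compound plus β2 antagonist ICI-118551 for 1 h 40 min and re-dosed for 20 min in glucose-free medium. Uptake of 50 nM ^3H-2-deoxyglucose over 10 min was counted after NaOH lysis.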

[2] = system: differentiated L6-myotubes; test: cAMP production relative to isoprenaline (Biological example 2 of WO 2019/053427); assay type: cell-based; conditions: 0.25 h, compound at 10 μM, activity relative to isoproterenol at 10 μM
Summary of the method: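 Differentiated L6 myotubes stimulated 15 min with test compound or isoprenaline, each at final 1×10^−5 M, in HBSS with 1% BSA, 5 mM HEPES, 1 mM IBMX, pH 7.4. cAMP production by the compound expressed relative to that induced by the same concentration of isoprenaline.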

For `O[C@@H](CNC[C@H]1CC[C@@H](O)CC1)c1cncc(F)c1` [Compound 269, (R)-1-(5-fluoro-3-pyridyl)-2-({[(1s,4S)-4-hydroxycyclohexyl]meth-yl}amno)-1-ethanol], the Emax at 10 µM [1] was 25 to 50% and the Emax at 10 µM [2] was under 25%.

For `CO[C@H]1CCC[C@@H](C(C)(C)NC[C@H](O)c2cncc(F)c2)C1` [Compound 270, (R)-2-{1-[(1R,3S)-3-methoxycyclohexyl]-1-methylethylamino}-1-(5-fluoro-3-pyridyl)-1-ethanol], the Emax at 10 µM [1] was over 75% and the Emax at 10 µM [2] was 50 to 75%.

`O[C@@H](CNC[C@H]1CC[C@H](OCc2ccccc2)CC1)c1cccc(F)c1` [Compound 271, (R)-1-(m-fluorophenyl)-2-({[(1r,4R)-4-(benzyloxy)cyclohexyl]methyl}amino)-1-ethanol] gave an Emax at 10 µM [1] of 25 to 50% and an Emax at 10 µM [2] of under 25%.

With `O[C@@H](CNC[C@H]1CC[C@H](O)CC1)c1cccc(F)c1` [Compound 272, (R)-1-(m-fluorophenyl)-2-({[(1r,4R)-4-hydroxycycloehxyl]meth-yl}amino)-1-ethanol] the Emax at 10 µM [1] was 25 to 50% and the Emax at 10 µM [2] was under 25%.

With `O[C@@H](CNC[C@H]1CC[C@H](OCc2ccccc2)CC1)c1cncc(F)c1` [Compound 273, (R)-1-(5-fluoro-3-pyrdiyl)-2-({[(1r,4R)-4-(benzyloxy)cyclohexyl]methyl}amino)-1-ethanol] the Emax at 10 µM [1] was 25 to 50% and the Emax at 10 µM [2] was under 25%.

With `O[C@@H](CNC[C@H]1CC[C@H](O)CC1)c1cncc(F)c1` [Compound 274, (R)-1-(5-fluoro-3-pyridyl)-2-({[(1r,4R)-4-hydroxycyclohexyl]meth-yl}amino)-1-ethanol] the Emax at 10 µM [1] was under 25% and the Emax at 10 µM [2] was under 25%.

Compound `O[C@@H](CNCCC[C@H]1CC[C@@H](OCc2ccccc2)CC1)c1cncc(F)c1` [Compound 275, (R)-1-(5-fluoro-3-pyridyl)-2-{3-[(1s,4R)-4-(benzyloxy)cyclohexyl]pro-pylamino}-1-ethanol] has an Emax at 10 µM [1] of 50 to 75% and an Emax at 10 µM [2] of under 25%.

`O[C@@H](CNCCC[C@H]1CC[C@H](OCc2ccccc2)CC1)c1cncc(F)c1` [Compound 276, (R)-1-(5-fluoro-3-pyridyl)-2-{3-[(1r,4S)-4-(benzyloxy)cyclohexyl]pro-pylamino}-1-ethanol] was tested, and the Emax at 10 µM [1] was 25 to 50% and the Emax at 10 µM [2] was under 25%.

For `O[C@@H](CNCCC[C@H]1CC[C@@H](OCc2ccccc2)CC1)c1cccc(F)c1` [Compound 277, (R)-1-(m-fluorophenyl)-2-{3-[(1s,4R)-4-(benzyloxy)cyclohexyl]pro-pylamino}-1-ethanol], the Emax at 10 µM [1] was 25 to 50% and the Emax at 10 µM [2] was under 25%.

`O[C@@H](CNCCC[C@H]1CC[C@H](OCc2ccccc2)CC1)c1cccc(F)c1` [Compound 278, (R)-1-(m-fluoropheny)-2-{3-[(1r,4S)-4-(benzyloxy)cyclohexyl]pro-pylamino}-1-ethanol] showed an Emax at 10 µM [1] of 25 to 50% and an Emax at 10 µM [2] of under 25%.

For `CC(C)(NC[C@H](O)c1cccc(F)c1)[C@H]1CC[C@H](OCc2ccccc2)CC1` [Compound 279, (R)-1-(m-fluorophenyl)-2-{1-methyl-1-[(1r,4R)-4-(benzyloxy)cyclohexyl]eth-ylamino}-1-ethanol], the Emax at 10 µM [1] was 50 to 75% and the Emax at 10 µM [2] was under 25%.

`CC(C)(NC[C@H](O)c1cccc(F)c1)[C@H]1CC[C@@H](OCc2ccccc2)CC1` [Compound 280, (R)-1-(m-fluorophenyl)-2-{1-methyl-1-[(1s,4S)-4-(benzyloxy)cyclohexyl]eth-ylamino}-1-ethanol] was tested, and the Emax at 10 µM [1] was over 75% and the Emax at 10 µM [2] was under 25%.

With `CC(C)(NC[C@H](O)c1cncc(F)c1)[C@H]1CC[C@H](OCc2ccccc2)CC1` [Compound 281, (R)-1-(5-fluoro-3-pyridyl)-2-{1-methyl-1-[(1r,4R)-4-(benzyloxy)cyclohexyl]eth-ylamino}-1-ethanol] the Emax at 10 µM [1] was 50 to 75% and the Emax at 10 µM [2] was under 25%.

In the case of `CC(C)(NC[C@H](O)c1cncc(F)c1)[C@H]1CC[C@@H](OCc2ccccc2)CC1` [Compound 282, (R)-1-(5-fluoro-3-pyridyl)-2-{1-methyl-1-[(1s,4S)-4-(benzyloxy)cylcohexyl]eth-ylamino}-1-ethanol], the Emax at 10 µM [1] is reported as 50 to 75% and the Emax at 10 µM [2] is reported as under 25%.

`CC(C)(NC[C@H](O)c1cccc(F)c1)[C@H]1CC[C@H](O)CC1` [Compound 283, (R)-1-(m-fluorophenyl)-2-{1-methyl-1-[(1r,4R)-4-hydroxycyclohexyl]ethyl-amino}-1-ethanol] was tested, and the Emax at 10 µM [1] was 50 to 75% and the Emax at 10 µM [2] was under 25%.

`CC(C)(NC[C@H](O)c1cccc(F)c1)[C@H]1CC[C@@H](O)CC1` [Compound 284, (R)-1-(m-fluorophenyl)-2-{1-methyl-1-[(1s,4S)-4-hydroxycyclohexyl]ethyl-amino}-1-ethanol] was tested, and the Emax at 10 µM [1] was 50 to 75% and the Emax at 10 µM [2] was under 25%.

For `CC(C)(NC[C@H](O)c1cncc(F)c1)[C@H]1CC[C@H](O)CC1` [Compound 285, (R)-1-(5-fluoro-3-pyridyl)-2-{1-methyl-1-[(1r,4R)-4-hydroxycyclohexyl]ethyl-amino}-1-ethanol], the Emax at 10 µM [1] was 50 to 75% and the Emax at 10 µM [2] was under 25%.

Compound `CC(C)(NC[C@H](O)c1cncc(F)c1)[C@H]1CC[C@@H](O)CC1` [Compound 286, (R)-1-(5-fluoro-3-pyridyl)-2-{1-methyl-1-[(1s,4S)-4-hydroxycyclohexyl]ethyl-amino}-1-ethanol] has an Emax at 10 µM [1] of 25 to 50% and an Emax at 10 µM [2] of under 25%.

`O[C@@H](CNCC[C@H]1CC[C@@H](OCc2ccccc2)CC1)c1cccc(F)c1` [Compound 287, (R)-1-(m-fluorophenyl)-2-{2-[(1s,4S)-4-(benzyloxy)cyclohexyl]eth-ylamino}-1-ethanol] gave an Emax at 10 µM [1] of 50 to 75% and an Emax at 10 µM [2] of under 25%.

In the case of `O[C@@H](CNCC[C@H]1CC[C@H](OCc2ccccc2)CC1)c1cccc(F)c1` [Compound 288, (R)-1-(m-fluorophenyl)-2-{2-[(1r,4R)-4-(benzyloxy)cyclohexyl]eth-ylamino}-1-ethanol], the Emax at 10 µM [1] is reported as 25 to 50% and the Emax at 10 µM [2] is reported as under 25%.

Work on `CC(C)(CC[C@H]1CC[C@H](O)CC1)NC[C@H](O)c1cncc(F)c1` [Compound 289, (R)-2-{1,1-dimethyl-3-[(1r,4S)-4-hydroxycyclohexyl]propyl-amino}-1-(5-fluoro-3-pyridyl)-1-ethanol] yielded an Emax at 10 µM [1] of 25 to 50% and an Emax at 10 µM [2] of under 25%.

For `CC(C)(CC[C@H]1CC[C@H](O)CC1)NC[C@H](O)c1cccc(F)c1` [Compound 290, (R)-2-{1,1-dimethyl-3-[(1r,4S)-4-hydroxycyclohexyl]propyl-amino}-1-(m-fluorophenyl)-1-ethanol], the Emax at 10 µM [1] was 25 to 50% and the Emax at 10 µM [2] was under 25%.

With `O[C@@H](CNCC[C@H]1CC[C@@H](OCc2ccccc2)CC1)c1cncc(F)c1` [Compound 291, (R)-1-(5-fluoro-3-pyridyl)-2-{2-[(1s,4S)-4-(benzyloxy)cyclohexyl]ethylamino}-1-ethanol] the Emax at 10 µM [1] was 50 to 75% and the Emax at 10 µM [2] was under 25%.

With `O[C@@H](CNCC[C@H]1CC[C@H](OCc2ccccc2)CC1)c1cncc(F)c1` [Compound 292, (R)-1-(5-fluoro-3-pyridyl)-2-{2-[(1r,4R)-4-(benzyloxy)cyclohexyl]ethylamino}-1-ethanol] the Emax at 10 µM [1] was under 25% and the Emax at 10 µM [2] was under 25%.

Compound `O[C@@H](CNCC[C@H]1CC[C@@H](O)CC1)c1cncc(F)c1` [Compound 293, (R)-1-(5-fluoro-3-pyridyl)-2-{2-[(1s,4S)-4-hydroxycyclohexyl]ethylamino}-1-ethanol] has an Emax at 10 µM [1] of 25 to 50% and an Emax at 10 µM [2] of under 25%.

With `O[C@@H](CNCC[C@H]1CC[C@H](O)CC1)c1cncc(F)c1` [Compound 294, (R)-1-(5-fluoro-3-pyridyl)-2-{2-[(1r,4R)-4-hydroxycyclohexyl]ethylamino}-1-ethanol] the Emax at 10 µM [1] was 25 to 50% and the Emax at 10 µM [2] was under 25%.

`CC(C)(CC[C@H]1CC[C@@H](O)CC1)NC[C@H](O)c1cccc(F)c1` [Compound 295, (R)-2-{1,1-dimethyl-3-[(1s,4R)-4-hydroxycyclohexyl]propylamino}-1-(m-fluorophenyl)-1-ethanol] was tested, and the Emax at 10 µM [1] was over 75% and the Emax at 10 µM [2] was under 25%.

`CC(C)(CC[C@H]1CC[C@@H](O)CC1)NC[C@H](O)c1cncc(F)c1` [Compound 296, (R)-2-{1,1-dimethyl-3-[(1s,4R)-4-hydroxycyclohexyl]propylamino}-1-(5-fluoro-3-pyridyl)-1-ethanol] gave an Emax at 10 µM [1] of over 75% and an Emax at 10 µM [2] of under 25%.

Compound `O[C@@H](CNCC[C@H]1CC[C@@H](O)CC1)c1cccc(F)c1` [Compound 297, (R)-1-(m-fluorophenyl)-2-{2-[(1s,4S)-4-hydroxycyclohexyl]ethylamino}-1-ethanol] has an Emax at 10 µM [1] of 50 to 75% and an Emax at 10 µM [2] of under 25%.

In the case of `O[C@@H](CNCC[C@H]1CC[C@H](O)CC1)c1cccc(F)c1` [Compound 298, (R)-1-(m-fluorophenyl)-2-{2-[(1r,4R)-4-hydroxycyclohexyl]ethylamino}-1-ethanol], the Emax at 10 µM [1] is reported as 25 to 50% and the Emax at 10 µM [2] is reported as under 25%.

Compound `CC(C)(C[C@H]1CC[C@H](O)CC1)NC[C@H](O)c1cncc(F)c1` [Compound 299, (R)-2-{1,1-dimethyl-2-[(1r,4R)-4-hydroxycyclohexyl]ethylamino}-1-(5-fluoro-3-pyridyl)-1-ethanol] has an Emax at 10 µM [1] of 50 to 75% and an Emax at 10 µM [2] of under 25%.

`CC(C)(C[C@H]1CC[C@H](O)CC1)NC[C@H](O)c1cccc(F)c1` [Compound 300, (R)-2-{1,1-dimethyl-2-[(1r,4R)-4-hydroxycyclohexyl]ethylamino}-1-(m-fluorophenyl)-1-ethanol] showed an Emax at 10 µM [1] of over 75% and an Emax at 10 µM [2] of under 25%.

With `CC(C)(C[C@H]1CC[C@@H](O)CC1)NC[C@H](O)c1cncc(F)c1` [Compound 301, (R)-2-{1,1-dimethyl-2-[(1s,4S)-4-hydroxycyclohexyl]ethylamino}-1-(5-fluoro-3-pyridyl)-1-ethanol] the Emax at 10 µM [1] was over 75% and the Emax at 10 µM [2] was under 25%.
